For one assay, the target named is T1, MAT2A homodimer (Homo sapiens, UniProt P31153).
T1 construct: inferred from the Ni sepharose purification and imidazole elution; made in house; host or cells: SF9 insect cells, recombinant baculovirus (Bac to Bac, pFASTBAC1)
Kind of assay: MAT2A biochemical assay (liberated phosphate, PiColorLock Gold). The note with it: Table 5a; MAT2A biochemical assay; read-out: Enzyme Inhibition. Summed up:
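Baculovirus/Sf9-expressed, Ni-purified MAT2A homodimer preincubated with compound 60 min at 25 °C, then reacted 60 min at 25 °C with substrate mix of 500 μM ATP and 400 μM L-methionine, pH 7.0 (mix, not final levels). Phosphate released with SAM measured by PiColorLock Gold against phosphate standard curve.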

Assay [1] has as its system SAM in HCT116 MTAP-deleted cells. Kind of assay: Cellular assay of target engagement (SAM), LC-MS/MS. Conditions: Homo sapiens, HCT-116, Table 5a, 72 h, read-out: Cell 72 h SAM Inhibition (MTAP −/−). The assay is classed as cell-based, human. In a few lines:
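HCT116 cells with MTAP deleted were treated with compound for 72 h at 37°C/5% CO2. After quenching lysis in cold 80% methanol with 1 M acetic acid, SAM was quantified by LC-MS/MS against a d3-SAM internal standard.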

The subject of another assay is HCT116 MTAP-/-. Kind of assay: Inhibition of cellular proliferation (Cell Titer Glo), HCT116 MTAP-/-. It is filed as cell-based, human. The note with it: Homo sapiens, HCT-116, 96 h, Table 5a, 4 days, read-out: 4 Day Relative Growth Inhibition (MTAP −/−). Summed up: (§1)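 Isogenic HCT116 MTAP+/+ and MTAP−/− cells were plated, treated with MAT2A inhibitor after 24 h, and incubated 4 days at 37 °C. Proliferation was read by CellTiter-Glo ATP luminescence, blank-subtracted and normalized to 0.2% DMSO control.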

For the next assay, the system named is HCT116 MTAP+/+. The assay can be described thus: Inhibition of cellular proliferation (Cell Titer Glo), HCT116 MTAP+/+. It is filed as cell-based. The note with it: Homo sapiens, HCT-116, 96 h, Table 5a, 4 days, read-out: 4 Day Relative Growth Inhibition (MTAP +/+). Summed up:
as §1

T1 sequence (P31153 whole entry): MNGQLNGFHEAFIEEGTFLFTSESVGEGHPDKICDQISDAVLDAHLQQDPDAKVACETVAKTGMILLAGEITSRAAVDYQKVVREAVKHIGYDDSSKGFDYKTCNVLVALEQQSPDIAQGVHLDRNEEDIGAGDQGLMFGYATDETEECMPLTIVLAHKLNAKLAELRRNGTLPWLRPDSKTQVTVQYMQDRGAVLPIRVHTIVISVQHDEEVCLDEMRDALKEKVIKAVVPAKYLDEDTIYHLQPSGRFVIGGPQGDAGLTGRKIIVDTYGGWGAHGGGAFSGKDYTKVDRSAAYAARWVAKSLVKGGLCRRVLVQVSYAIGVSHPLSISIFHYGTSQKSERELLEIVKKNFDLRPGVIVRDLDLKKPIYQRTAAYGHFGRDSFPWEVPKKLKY

For `[2H]C([2H])([2H])Oc1ccc(N2C(=O)N(c3ccc4nc(C)n(C)c4c3)Cc3cnc(NCC(F)(F)F)nc32)cc1` [Example 402, 3-(1,2-dimethyl-1H-benzo[d]imidazol-6-yl)-1-(4-(methoxy-d3)phenyl)-7-((2,2,2-trifluoroethyl)amino)-3,4-dihydropyrimido[4,5-d]pyrimidin-2(1H)-one], the IC50 on MAT2A homodimer was less than 100 nM; in assay [1], less than 100 nM; in the assay with HCT116 MTAP-/-, less than 100 nM; in the assay on HCT116 MTAP+/+, 100 to 1000 nM.
Take `Cn1cc2cc(N3Cc4ccc(OCC(F)F)nc4N(c4ccc5c(c4)ncn5C)C3=O)ccc2n1` [Example 403, 7-(2,2-difluoroethoxy)-1-(1-methyl-1H-benzo[d]imidazol-5-yl)-3-(2-methyl-2H-indazol-5-yl)-3,4-dihydropyrido[2,3-d]pyrimidin-2(1H)-one]: the IC50 was less than 100 nM on MAT2A homodimer, less than 100 nM in assay [1], 100 to 1000 nM in the assay on HCT116 MTAP-/- and more than 1000 nM with HCT116 MTAP+/+.
With `Cn1cc2cc(N3Cc4ccc(OCC(F)F)nc4N(c4ccc5[nH]cnc5c4)C3=O)ccc2n1` [Example 404, 1-(1H-benzo[d]imidazol-5-yl)-7-(2,2-difluoroethoxy)-3-(2-methyl-2H-indazol-5-yl)-3,4-dihydropyrido[2,3-d]pyrimidin-2(1H)-one], the IC50 on MAT2A homodimer was less than 100 nM; in assay [1] it was 100 to 1000 nM; in the assay on HCT116 MTAP-/- it was 100 to 1000 nM; in the assay on HCT116 MTAP+/+, more than 1000 nM.
For `Cn1cc2cc(N3Cc4ccc(OCC(F)F)nc4N(c4ccc5[nH]ncc5c4)C3=O)ccc2n1` [Example 405, 7-(2,2-difluoroethoxy)-1-(1H-indazol-5-yl)-3-(2-methyl-2H-indazol-5-yl)-3,4-dihydropyrido[2,3-d]pyrimidin-2(1H)-one], the IC50 was less than 100 nM at MAT2A homodimer, less than 100 nM in assay [1], 100 to 1000 nM with HCT116 MTAP-/- and more than 1000 nM in the assay with HCT116 MTAP+/+.
For the compound `COc1ccc(N2Cc3ccc(NCC(F)(F)F)nc3N(c3ccc(OC(F)F)cc3)C2=O)cc1` [Example 406, 1-(4-(difluoromethoxy)phenyl)-3-(4-methoxyphenyl)-7-((2,2,2-trifluoroethyl)amino)-3,4-dihydropyrido[2,3-d]pyrimidin-2(1H)-one], the IC50 on MAT2A homodimer was less than 100 nM; in assay [1], 100 to 1000 nM; with HCT116 MTAP-/-, 100 to 1000 nM; in the assay on HCT116 MTAP+/+ it was more than 1000 nM.
With `COc1ccc(N2Cc3ccc(NCC(F)(F)F)nc3N(c3ccc(Cl)cc3)C2=O)cc1` [Example 407, 1-(4-chlorophenyl)-3-(4-methoxyphenyl)-7-((2,2,2-trifluoroethyl)amino)-3,4-dihydropyrido[2,3-d]pyrimidin-2(1H)-one], the IC50 was 100 to 1000 nM at MAT2A homodimer, more than 1000 nM in assay [1], more than 1000 nM with HCT116 MTAP-/- and more than 1000 nM in the assay with HCT116 MTAP+/+.
`O=C1N(c2ccc3ncsc3c2)Cc2ccc(OCC(F)F)nc2N1c1ccc(OC(F)F)cc1` [Example 408, 3-(benzo[d]thiazol-6-yl)-7-(2,2-difluoroethoxy)-1-(4-(difluoromethoxy)phenyl)-3,4-dihydropyrido[2,3-d]pyrimidin-2(1H)-one]: the IC50 at MAT2A homodimer is less than 100 nM; in assay [1], less than 100 nM; in the assay with HCT116 MTAP-/-, 100 to 1000 nM; with HCT116 MTAP+/+, more than 1000 nM.
For `O=C1N(c2ccc3ncsc3c2)Cc2ccc(OCC(F)F)nc2N1c1ccc(Br)cc1` [Example 409, 3-(benzo[d]thiazol-6-yl)-1-(4-bromophenyl)-7-(2,2-difluoroethoxy)-3,4-dihydropyrido[2,3-d]pyrimidin-2(1H)-one], the IC50 is less than 100 nM on MAT2A homodimer, less than 100 nM in assay [1], less than 100 nM with HCT116 MTAP-/- and 100 to 1000 nM in the assay with HCT116 MTAP+/+.
As for `Cn1cc2cc(N3Cc4ccc(OCC(F)F)nc4N(c4ccc5[nH]cc(C#N)c5c4)C3=O)ccc2n1` [Example 410, 5-(7-(2,2-difluoroethoxy)-3-(2-methyl-2H-indazol-5-yl)-2-oxo-3,4-dihydropyrido[2,3-d]pyrimidin-1(2H)-yl)-1H-indole-3-carbonitrile], the IC50 is less than 100 nM at MAT2A homodimer, less than 100 nM in assay [1], 100 to 1000 nM in the assay with HCT116 MTAP-/- and more than 1000 nM in the assay on HCT116 MTAP+/+.
Consider `Cn1cc2cc(N3Cc4ccc(OCC(F)F)nc4N(c4ccc5oc(N)nc5c4)C3=O)ccc2n1` [Example 411, 1-(2-aminobenzo[d]oxazol-5-yl)-7-(2,2-difluoroethoxy)-3-(2-methyl-2H-indazol-5-yl)-3,4-dihydropyrido[2,3-d]pyrimidin-2(1H)-one], for which the IC50 on MAT2A homodimer was less than 100 nM; in assay [1] it was less than 100 nM; in the assay with HCT116 MTAP-/- it was less than 100 nM; in the assay on HCT116 MTAP+/+ it was more than 1000 nM.
On to `Cn1cc2cc(N3Cc4ccc(OCC(F)F)nc4N(c4ccc(NC(N)=O)cc4)C3=O)ccc2n1` [Example 412, 1-(4-(7-(2,2-difluoroethoxy)-3-(2-methyl-2H-indazol-5-yl)-2-oxo-3,4-dihydropyrido[2,3-d]pyrimidin-1(2H)-yl)phenyl)urea], for which the IC50 on MAT2A homodimer was less than 100 nM; in assay [1], less than 100 nM; with HCT116 MTAP-/- it was less than 100 nM; in the assay on HCT116 MTAP+/+ it was more than 1000 nM.
In the case of `CCOc1cnc2c(n1)N(c1ccc(Cl)cc1)C(=O)N(c1ccc3nn(C)cc3c1)C2` [Example 413, 1-(4-chlorophenyl)-7-ethoxy-3-(2-methyl-2H-indazol-5-yl)-3,4-dihydropteridin-2(1H)-one], the IC50 at MAT2A homodimer is less than 100 nM; in assay [1], less than 100 nM; in the assay on HCT116 MTAP-/-, 100 to 1000 nM; in the assay with HCT116 MTAP+/+, more than 1000 nM.
In the case of `Cn1cc2cc(N3Cc4ncc(NCC(F)(F)F)nc4N(c4ccc(OC(F)F)cc4)C3=O)ccc2n1` [Example 414, 1-(4-(difluoromethoxy)phenyl)-3-(2-methyl-2H-indazol-5-yl)-7-((2,2,2-trifluoroethyl)amino)-3,4-dihydropteridin-2(1H)-one], the IC50 was less than 100 nM at MAT2A homodimer, less than 100 nM in assay [1], less than 100 nM with HCT116 MTAP-/- and more than 1000 nM in the assay on HCT116 MTAP+/+.
For the compound `COc1ccc(N2Cc3ncc(NCC(F)(F)F)nc3N(c3ccc(OC(F)F)cc3)C2=O)cc1` [Example 415, 1-(4-(difluoromethoxy)phenyl)-3-(4-methoxyphenyl)-7-((2,2,2-trifluoroethyl)amino)-3,4-dihydropteridin-2(1H)-one], the IC50 at MAT2A homodimer was less than 100 nM; in assay [1], 100 to 1000 nM; in the assay on HCT116 MTAP-/-, 100 to 1000 nM; with HCT116 MTAP+/+, 100 to 1000 nM.
As for `COc1ccc(N2Cc3ncc(NCC(F)(F)F)nc3N(c3ccc(Cl)cc3)C2=O)cc1` [Example 416, 1-(4-chlorophenyl)-3-(4-methoxyphenyl)-7-((2,2,2-trifluoroethyl)amino)-3,4-dihydropteridin-2(1H)-one], the IC50 on MAT2A homodimer is less than 100 nM; in assay [1] it was 100 to 1000 nM; in the assay with HCT116 MTAP-/-, 100 to 1000 nM; in the assay with HCT116 MTAP+/+ it was more than 1000 nM.
With `[2H]C([2H])([2H])Oc1ccc(N2C(=O)N(c3ccc4nn(C)cc4c3)Cc3ncc(OCC)nc32)cc1` [Example 417, 7-ethoxy-1-(4-(methoxy-d3)phenyl)-3-(2-methyl-2H-indazol-5-yl)-3,4-dihydropteridin-2(1H)-one], the IC50 at MAT2A homodimer is less than 100 nM; in assay [1] it was less than 100 nM; in the assay with HCT116 MTAP-/- it was 100 to 1000 nM; in the assay with HCT116 MTAP+/+ it was 100 to 1000 nM.

Source of the values: patent US20220098203A1 (priority 2018, published 2022).
